Data published in patent US12458021B2, “Microbiocidal derivatives” (SYNGENTA CROP PROTECTION AG, priority 2019, dated 2025).

Assays:
[1] = test system: Glomerella lagenarium (Colletotrichum lagenarium); experiment: Glomerella lagenarium (Colletotrichum lagenarium) / liquid culture (anthracnose); format: cell-based; conditions: Colletotrichum orbiculare, PDB potato dextrose broth, 24° C., 3-4 days after application, read-out: control of Glomerella lagenarium (inhibition of growth, photometric)
Procedure, shortened: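 Fungal growth inhibition measured photometrically 3-4 days post-application at 24° C. Spores were mixed directly into potato dextrose broth and dispensed onto test compound supplied in DMSO.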

[2] = test system: Blumeria graminis f. sp. tritici (Erysiphe graminis f. sp. tritici); experiment: Blumeria graminis f. sp. tritici / wheat / leaf disc preventative (powdery mildew on wheat); format: in vivo; conditions: foliar, wheat leaf segments cv. Kanzler, inoculated 1 day after application, assessed 6-8 days after application, read-out: control of Blumeria graminis f. sp. tritici (percent disease control compared to untreated)
Text: Example B4: Blumeria graminis f. sp. tritici (Erysiphe graminis f. sp. tritici)/Wheat/Leaf Disc Preventative (Powdery Mildew on Wheat) Wheat leaf segments cv. Kanzler are placed on agar in a multiwell plate (24-well format) and sprayed with the formulated test compound diluted in water. The leaf disks are inoculated by shaking powdery mildew infected plants above the test plates 1 day after application. […] […]-192.

[3] = test system: Mycosphaerella graminicola (Septoria tritici); experiment: Mycosphaerella graminicola (Septoria tritici) / liquid culture (Septoria blotch); format: cell-based; conditions: Zymoseptoria tritici, PDB potato dextrose broth, 24° C., 4-5 days after application, read-out: control of Mycosphaerella graminicola (inhibition of growth, photometric)
Procedure, shortened: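 Fungal growth inhibition was read photometrically 4-5 days after application. Compound was dosed from a DMSO solution into liquid cultures of spores in potato dextrose broth, incubated at 24° C.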

Pyrenophora teres = Pyrenophora teres / barley / leaf disc preventative (net blotch); format: in vivo; conditions: foliar, barley leaf segments cv. Hasso, inoculated 2 days after application, assessed 5-7 days after application, read-out: control of Pyrenophora teres (disease control compared to untreated)
Procedure, shortened: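 Barley cv. Hasso leaf discs on agar were sprayed with diluted formulated compound, then inoculated with spore suspension 2 days later. Incubation at 20 °C, 65% rh, 12 h light/dark; disease control versus untreated assessed 5-7 days after application.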

[4] = test system: Mycosphaerella arachidis (Cercospora arachidicola); experiment: Mycosphaerella arachidis (Cercospora arachidicola) / liquid culture (early leaf spot); format: cell-based; conditions: PDB potato dextrose broth, 24° C., 4-5 days after application, read-out: control of Mycosphaerella arachidis (inhibition of growth, photometric)
Procedure, shortened: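 Conidia from cryogenic storage suspended in potato dextrose broth and added to compound in DMSO. Incubation at 24° C; growth inhibition read photometrically 4-5 days after application.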

[5] = test system: Monographella nivalis (Microdochium nivale); experiment: Monographella nivalis (Microdochium nivale) / liquid culture (foot rot cereals); format: cell-based; conditions: PDB potato dextrose broth, 24° C., 4-5 days after application, read-out: control of Monographella nivalis (inhibition of growth, photometric)
Procedure, shortened: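 Growth inhibition measured by photometry 4-5 days post-application at 24° C. Compound was dispensed as DMSO solution, then PDB broth containing conidia from cryogenic storage was added.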

Alternaria solani = Alternaria solani / tomato / leaf disc (early blight); format: in vivo; conditions: foliar, tomato leaf disks cv. Baby, inoculated 2 days after application, assessed 5-7 days after application, read-out: control of Alternaria solani (percent disease control compared to untreated)
Procedure: Example B1: Alternaria solani/Tomato/Leaf Disc (Early Blight) Tomato leaf disks cv. Baby are placed on agar in multiwell plates (24-well format) and sprayed with the formulated test compound diluted in water. The leaf disks are inoculated with a spore suspension of the fungus 2 days after application. The inoculated leaf disks are incubated at 23° C./21° C. […] […]-185.

[6] = test system: Puccinia recondita f. sp. tritici; experiment: Puccinia recondita f. sp. tritici / wheat / leaf disc preventative (brown rust); format: in vivo; conditions: foliar, wheat leaf segments cv. Kanzler, inoculated 1 day after application, assessed 7-9 days after application, read-out: control of Puccinia recondita f. sp. tritici, preventative (percent disease control compared to untreated)
Procedure, shortened: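 Wheat leaf segments (cv. Kanzler) on agar were sprayed with formulated compound, then inoculated with spores 1 day later. Segments were incubated at 19 °C, 75% rh with 12 h light/dark. Percent disease control versus untreated was scored 7–9 days after application.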

Fusarium culmorum = experiment: microbe, parasite or virus in culture; format: cell-based; conditions: read-out: control of Fusarium culmorum (inhibition of growth, photometric)
[7] = test system: Phaeosphaeria nodorum (Septoria nodorum); experiment: Phaeosphaeria nodorum (Septoria nodorum) / wheat / leaf disc preventative (glume blotch); format: in vivo; conditions: Parastagonospora nodorum, foliar, wheat leaf segments cv. Kanzler, inoculated 2 days after application, assessed 5-7 days after application, read-out: control of Phaeosphaeria nodorum (percent disease control compared to untreated)
Procedure, shortened: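 Wheat cv. Kanzler leaf discs on agar were sprayed with formulated compound diluted in water and inoculated with spores 2 days later. Discs were kept at 20° C, 75% rh, 12 h light/dark; percent disease control versus untreated was scored 5-7 days after application.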

[8] = test system: Magnaporthe grisea (Pyricularia oryzae); experiment: whole plant or invertebrate; format: in vivo; conditions: foliar, read-out: control of Magnaporthe grisea (percent disease control compared to untreated)
Sclerotinia sclerotiorum = Sclerotinia sclerotiorum / liquid culture (cottony rot); format: cell-based; conditions: PDB potato dextrose broth, mycelia fragments, 24° C., 3-4 days after application, read-out: control of Sclerotinia sclerotiorum (inhibition of growth, photometric)
Procedure, shortened: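 Mycelial fragments of a fresh liquid culture in potato dextrose broth were added to compound dispensed from DMSO solution. Plates were incubated at 24° C. Growth inhibition was measured photometrically 3–4 days after application.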

[9] = test system: Puccinia recondita f. sp. tritici; experiment: Puccinia recondita f. sp. tritici / wheat / leaf disc curative (brown rust); format: in vivo; conditions: foliar, wheat leaf segments cv. Kanzler, compound applied 1 day after inoculation, assessed 6-8 days after application, read-out: control of Puccinia recondita f. sp. tritici, curative (percent disease control compared to untreated)
Procedure: Example B10: Puccinia recondita f. sp. tritici/Wheat/Leaf Disc Curative (Brown Rust) Wheat leaf segments cv. Kanzler are placed on agar in multiwell plates (24-well format). The leaf segments are inoculated with a spore suspension of the fungus. Plates are stored in darkness at 19° C. and 75% rh. The formulated test compound diluted in water is applied 1 day after inoculation. […] […]-185.

COc1ccc(Nc2cc(F)cc(F)c2)nc1C(=O)NC1(C)CCCC1 [Compound P-107, 6-(3,5-difluoroanilino)-3-methoxy-N-(1-methylcyclopentyl)pyridine-2-carboxamide]
≥ 80%: inhibition at 20 ppm [1] | pest or weed control at 200 ppm [2] | inhibition at 20 ppm [3] | pest or weed control at 200 ppm (Pyrenophora teres) | inhibition at 20 ppm [4] | inhibition at 20 ppm [5] | pest or weed control at 200 ppm (Alternaria solani) | pest or weed control at 200 ppm [6] | inhibition at 20 ppm (Fusarium culmorum) | pest or weed control at 200 ppm [7] | pest or weed control at 200 ppm [8] | inhibition at 20 ppm (Sclerotinia sclerotiorum) | pest or weed control at 200 ppm [9]
